Columns and labels:
Format in all cases: in vivo, mouse
[1] = test system: wild-type mice, SAH model; experiment: Sodium fluorescein extravasation assay (blood-brain barrier permeability) after SAH; settings: 24 hours post-SAH, adropin 450 nmol/kg i.p.
Experimental: (§1) Synthetic adropin^34-76 peptide was supplied from Bachem (Bubendorf, Switzerland) and diluted in 0.1% BSA in saline. 0.1% BSA in saline was used as vehicle control for all experiments. Adropin (450 nmol/kg) or an equivalent volume of vehicle was delivered via intraperitoneal injection 15 minutes post-SAH. For experiments ending at 24 hours post-SAH, an identical dose of adropin/vehicle was given again 12 hours later. For experiments ending 7 days post-SAH, adropin/vehicle was given again on days 1, 3 & 5 post-SAH. In the aneurysm rupture model, adropin was given at a dose of 450 nmol/kg starting 3 days before aneurysm induction (elastase injection). Adropin was given every other day until sacrifice
SAH was modeled using the anterior circulation single autologous blood injection method^25,33 with minor adjustments. Mice were anesthetized with ketamine (100 mg/kg) and xylazine (10 mg/kg) before removing hair from scalp and cleaning with serial betadine—saline washes. The tail was also prepped from the base extending 1 cm distally. Mice were then fixed into a stereotaxic frame and body temperature maintained at 37° C. The scalp was incised along the sagittal suture from bregma to the nasal bone. The skin was reflected and a burr hole was drilled 5.0 mm rostral of bregma and 0.5 mm right laterally to avoid puncturing dural venous sinuses. […]

[2] = test system: wild-type mice, SAH model; experiment: Fibrinogen immunostaining for microthrombi after SAH; settings: 24 hours post-SAH, adropin 450 nmol/kg i.p.
Experimental: as §1
(§2) SAH was modeled using the anterior circulation single autologous blood injection method^25,33 with minor adjustments. […]
(§3) Following perfusion-fixation and overnight post-fixation in 4% PFA, brain samples were embedded in paraffin wax and cut into […] sections with a Leica RM2125 RTS microtome (Leica Microsystems, Buffalo Grove, New York) and adhered to poly-L-lysine-coated glass slides. […] Primary antibodies were detected using donkey anti-rabbit IgG AlexaFluor594, donkey anti-rabbit IgG AlexaFluor488, donkey anti-rat IgG AlexaFluor594, or donkey anti-goat IgG AlexaFluor488 (all from ThermoFisher, Waltham, Massachusetts). […] All images were analyzed by two blinded observers.

[3] = test system: wild-type mice, SAH model; experiment: Cerebral blood flow by laser speckle contrast imaging after SAH; settings: day 1 post-SAH, adropin 450 nmol/kg i.p.
Experimental: as §1
SAH was modeled using the anterior circulation single autologous blood injection method^25,33 with minor adjustments. Mice were anesthetized with ketamine (100 mg/kg) and xylazine (10 mg/kg) before removing hair from scalp and cleaning with serial betadine—saline washes. The tail was also prepped from the base extending 1 cm distally. Mice were then fixed into a stereotaxic frame and body temperature maintained at 37° C. […]
One day post-SAH, animals were anesthetized with ketamine/xylazine as described above, placed in a supine position in a stereotaxic frame. […] Blood flow (perfusion) values are calculated using PIMsoft software (PeriMed AB, Stockholm, Sweden) as arbitrary “perfusion units”. […]

[4] = test system: wild-type mice, SAH model; experiment: TUNEL/NeuN staining for neuronal apoptosis after SAH; settings: seven days post-SAH
Experimental: as §1, §2, §3

eNOS^−/− mice, SAH model = experiment: Sensorimotor deficits (corner test) after SAH in eNOS knockout mice
Excerpt: All animal experiments were approved by IACUC (Institutional Animal Care and Use Committee) and performed in accordance with ARRIVE (Animal Research: Reporting of In Vivo Experiments) guidelines. All animals were 12-15-week-old females and were housed in pathogen-free housing with ad libitum food and water and 12-h light/dark cycling. Wild-type C57B1/6 mice were received from Charles River Labs (Wilmington, Mass.) and eNOS knockout mice were obtained from The Jackson Laboratory (Bar Harbor, Maine). eNOS knockout breeding pairs were genotyped prior to breeding and F1 progeny used for all experiments. The following primers were used for genotyping: eNOS knockout (Nos3^−/−): F-5′-[…]-3′, R-5′-[…]-3′. All animals underwent twice daily monitoring from institutional animal care services staff and/or investigators. Mice were randomized to treatment groups prior to surgical procedures.
as §1, with “In the aneurysm rupture model, adropin was given at a dose of 450 nmol/kg starting 3 days before aneurysm induction (elastase injection). Adropin was given every other day until sacrifice” left out

Q: Which “barrier permeability, average area of positive fluorescein signal” value [1] does the source give for “adropin (CHSRSADVDSLSESSPNSSPGPCPEKAPPPQKPSHEGSYLLQP) [Synthetic adropin^34-76 peptide from Bachem]” here?
A: Its value is “adropin treatment reduced this effect”.

Q: And the “number of microthrombi (fibrinogen immunostaining)” value [2]?
A: The value was “adropin treatment completely abolished this effect”.

Q: And the “cerebral blood flow (CBF), perfusion” value [3]?
A: The value was “adropin treatment restored CBF back to baseline”.

Q: What about the “NeuN+/TUNEL+ cells (neuronal apoptosis)” value [4] of the same substance?
A: Its value is “did not have as many TUNEL^+ neurons”.

Q: What about the “sensorimotor deficits (corner test turn preference)” value (eNOS^−/− mice, SAH model) of the same substance?
A: Its value is “adropin also had no effect on sensorimotor deficits”.

From patent US20250144179A1, “PEPTIDE HORMONE TO PREVENT OR TREAT VASOSPASM, BRAIN INJURY OR CEREBRAL EDEMA” (UNIVERSITY OF FLORIDA RESEARCH FOUNDATION, INCORPORATED, priority 2022, published 2025)
